Earlier results as cited in patent US10729634B2, “Sex hormone-binding globulin for use as a medicament” (FUNDACIÓ HOSPITAL UNIVERSITARI VALL D'HEBRON—INSTITUT DE …, priority 2013, dated 2020).

Key:
[1] = cited from earlier work
[2] = test system: HepG2 hepatoblastoma cells; details: positive control, 3 μM; cited from earlier work

Structure (SMILES): C[C@H]1CNCCc2ccc(Cl)cc21 [Lorcaserin]
- average weight loss greater than placebo ([1]; over a year): 3.1 kg
- average weight loss greater than placebo, of body mass ([1]; over a year): 3%

Structure (SMILES): CC(C)NCC(O)c1ccc(O)c(O)c1 (stereo not shown) [Isoproterenol]
- lipolysis [2]: induces lipolysis

Structure (SMILES): CCCCCCCCCCC[C@@H](C[C@@H]1OC(=O)[C@H]1CCCCCC)OC(=O)[C@H](CC(C)C)NC=O [orlistat]
- side effects ([1]; in vivo): associated with gastrointestinal side effects
